In PMC3272488 (European Journal of Medicinal Chemistry, 2011):
Counter-ions that a name gives are not always drawn.

Experiments:
[1] = target: T1, sigma-2 receptors (Rattus norvegicus, UniProt Q5U3Y7); assay: sigma-2 receptor radioligand binding
T1 sequence (Q5U3Y7 1-176): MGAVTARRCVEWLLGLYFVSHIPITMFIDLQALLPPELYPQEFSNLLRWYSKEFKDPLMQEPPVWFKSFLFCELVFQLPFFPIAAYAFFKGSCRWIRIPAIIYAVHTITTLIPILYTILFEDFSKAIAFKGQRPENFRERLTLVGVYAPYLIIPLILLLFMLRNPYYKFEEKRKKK

[2] = tested on: σ-2; details: quantity type not given; cited from earlier work
[3] = tested on: σ-1; details: quantity type not given; cited from earlier work

σ-1/σ-2 selectivity ratio [1]	SMILES	σ-2 affinity [2] [nM]	σ-1 affinity [3]
5	Fc1ccc(N2CCN(CCCCn3ccc4ccccc43)CC2)cc1 [4b, 1-(4-(4-(4-Fluorophenyl)piperazin-1-yl)butyl)indole oxalate]		
	COc1cc2c(cc1OC)CN(CCCCNC(=O)c1cc(Br)cc(OC)c1OC)CC2 [5-bromo-N-(4-(6,7-dimethoxy-3,4-dihydroisoquinolin-2(1H)-yl)butyl)-2,3-dimethoxybenzamide]	8.2	12,900 nM
	Fc1ccc(-n2cc(CCCCN3CCC4(CC3)OCc3ccccc34)c3ccccc32)cc1 [Siramesine]		17 nM
